Data as given in patent US20180344702A1, “METHODS FOR TREATING PATIENTS WITH HEMATOLOGIC MALIGNANCIES” (Aptose Biosciences, Inc., priority 2017, published 2018).

Assays:
Experiment in all cases: Cytotoxicity, MTS cell viability
Assay type in all cases: cell-based
[1] = system: Daudi; conditions: Homo sapiens, 72 h, Burkitt's, 3 days MTS
Procedure: (§1) Cells were seeded in a 96 well plate and treated with either vehicle (DMSO) or compound 7 at 10 different concentrations for 3 days at 37° C. and 5% CO2. Cell viability was assessed using CellTiter 96 AQueous one solution (MTS Promega Cat#G3581), and IC50 values calculated using GraphPad Prism 7 software.
(§2) Cytotoxicity procedure: Cells were seeded in 96-well plate and treated with vehicle DMSO or Compound 7 at a specified concentration and incubated for 72 hours.

[2] = system: RS411; conditions: Homo sapiens, RS4-11, 72 h, ALL / B-ALL, 3 days MTS
Procedure: as §1, §2

[3] = system: SU-DHL6; conditions: Homo sapiens, SU-DHL-6, 72 h, DLBCL / GCB-DLBCL, 3 days MTS
Procedure: as §1, §2

[4] = system: K562; conditions: Homo sapiens, 72 h, CML, 3 days MTS
Procedure: as §1, §2

[5] = system: Raji; conditions: Burkitt's, 3 days MTS
Procedure: as §1, §2

[6] = system: GRANTA-519; conditions: Homo sapiens, 72 h, MCL, 3 days MTS
Procedure: as §1, §2

[7] = system: MEC-1; conditions: CLL, 3 days MTS
Procedure: as §1, §2

[8] = system: Mino; conditions: Homo sapiens, 72 h, MCL, 3 days MTS
Procedure: as §1, §2

[9] = system: RL; conditions: Homo sapiens, 72 h, DLBCL / GCB-DLBCL, 3 days MTS
Procedure: as §1, §2

[10] = system: Jeko-1; conditions: Homo sapiens, 72 h, MCL, 3 days MTS
Procedure: as §1, §2

Cc1cnc(-c2ccc(-c3ccc(NC(=O)Nc4c(F)cc(F)cc4F)cc3F)c3c2C(=O)NC3)[nH]1 [Compound 7, 1-{3-fluoro-4-[7-(5-methyl-1H-imidazol-2-yl)-1-oxo-2,3-dihydro-1H-isoindol-4-yl]-phenyl}-3-(2,4,6-trifluorophenyl)urea]
IC50 [1]: 166 nM
IC50 [2]: 1.51 nM
IC50 [3]: 122 nM
IC50 [4]: 12900 nM
IC50 [5]: 2030 nM
IC50 ([5]; Homo sapiens, 72 h): 2030 nM
IC50 [6]: 13.6 nM
IC50 [7]: 3800 nM
IC50 ([7]; Homo sapiens, MEC1, 72 h): 3800 nM
IC50 [8]: 5.98 nM
IC50 [9]: 426 nM
IC50 [10]: 73.8 nM
